Results on 13 compounds are retold here after ChEMBL document CHEMBL1201862, “PubChem BioAssay data set” (2004).

Activity calls are given as the source filed them. Rule as the data show it, for most assays here: actives have a measured EC50 and inactives only a lower limit.

What is called EC50 is the midpoint of the concentration-response curve. Broadly, the IC50 is the concentration that gives 50% inhibition. By AC50 is commonly meant the midpoint of the concentration-response curve, whichever way the signal moves.

Test [1] concerns BJ. As to the kind of experiment: cells. Particulars: Homo sapiens. The class given is functional, cell-based.
Test [2] in a line: inhibitors of firefly luciferase expression or activity, dose response, H4 neuroglioma cells, luminescence (AID 1990). The class given is functional, cell-based.
The nature of test [3]: cytotoxicity toward DRD oncogenic fibroblasts, dose response, cell-based, non-viral oncogenic, luminescence (AID 1934). The class given is functional. The settings on record: Homo sapiens.
A short description of test [4]: inhibitors of SNCA 5'UTR-driven reporter translation, confirmation, H4 neuroglioma cells, luminescence (AID 1988). The class given is functional, cell-based.
Test [5] in a line: Luminescence Cell-Based Dose Response HTS to Identify Inhibitors of 5'UTR Stem-Loop Driven Prion Protein mRNA Translation in H4 Neuroglioblastoma Cells. [Related pubchem assays: 1827 (Project Summary), 1813 (Primary HTS)]. It counts as functional.
Test [6] relates to BJ. As to the kind of experiment: cytotoxicity toward BJ-TERT fibroblasts, dose response, cell-based, RAS-independent, luminescence (AID 1933). It counts as functional. The settings on record: Homo sapiens.
Test [7] deals with BJ. The test is described as follows: cytotoxicity toward BJ-TERT-LT-ST fibroblasts, dose response, cell-based, RAS-independent, luminescence (AID 1935).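 Also: BJ fibroblasts immortalized with TERT plus LT and ST oncogenes.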 Particulars: Homo sapiens. The class given is functional.
For test [8], the target named is T1, Calpain-2 catalytic subunit (Sus scrofa, UniProt P43367).
T1 sequence (P43367 whole entry): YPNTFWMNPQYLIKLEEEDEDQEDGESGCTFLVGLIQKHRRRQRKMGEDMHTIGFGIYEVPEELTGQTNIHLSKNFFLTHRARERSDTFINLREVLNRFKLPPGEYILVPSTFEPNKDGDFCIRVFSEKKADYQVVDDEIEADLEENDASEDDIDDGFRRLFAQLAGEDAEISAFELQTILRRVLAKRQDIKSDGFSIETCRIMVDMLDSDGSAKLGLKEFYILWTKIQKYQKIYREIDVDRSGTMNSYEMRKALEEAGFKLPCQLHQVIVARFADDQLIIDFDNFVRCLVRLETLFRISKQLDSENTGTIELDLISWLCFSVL
The test is described as follows: pig calpain II inhibitor potency, dose response, biochemical, fluorogenic peptide substrate (AID 1420). The class given is functional.

A further test concerns the target T2, Coagulation factor XII (Homo sapiens, UniProt P00748).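 Also: activated factor XIIa alpha cleaving a fluorogenic AMC peptide substrate; inhibitor potency from loss of enzyme activity.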
T2 sequence (P00748 whole entry): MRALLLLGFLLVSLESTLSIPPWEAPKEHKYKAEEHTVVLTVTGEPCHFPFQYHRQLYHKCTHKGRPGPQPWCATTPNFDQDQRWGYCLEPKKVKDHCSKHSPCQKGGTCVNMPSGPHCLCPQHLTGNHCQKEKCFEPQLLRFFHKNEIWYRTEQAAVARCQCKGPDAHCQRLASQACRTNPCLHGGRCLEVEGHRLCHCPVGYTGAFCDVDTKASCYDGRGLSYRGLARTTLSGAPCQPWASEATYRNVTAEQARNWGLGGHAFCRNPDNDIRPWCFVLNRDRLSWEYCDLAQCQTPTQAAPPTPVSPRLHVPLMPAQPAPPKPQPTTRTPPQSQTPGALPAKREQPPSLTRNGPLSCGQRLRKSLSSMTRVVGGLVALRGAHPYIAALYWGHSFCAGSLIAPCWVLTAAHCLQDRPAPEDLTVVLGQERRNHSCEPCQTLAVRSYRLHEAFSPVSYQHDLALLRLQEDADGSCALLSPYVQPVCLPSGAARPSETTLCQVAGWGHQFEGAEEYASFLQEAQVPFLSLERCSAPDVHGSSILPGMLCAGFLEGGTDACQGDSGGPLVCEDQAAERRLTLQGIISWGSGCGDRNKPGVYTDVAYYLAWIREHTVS
It counts as functional.

The target of test [9] is T3, Heat shock factor protein 1 (Mus musculus, UniProt P38532).
T3 sequence (P38532 whole entry): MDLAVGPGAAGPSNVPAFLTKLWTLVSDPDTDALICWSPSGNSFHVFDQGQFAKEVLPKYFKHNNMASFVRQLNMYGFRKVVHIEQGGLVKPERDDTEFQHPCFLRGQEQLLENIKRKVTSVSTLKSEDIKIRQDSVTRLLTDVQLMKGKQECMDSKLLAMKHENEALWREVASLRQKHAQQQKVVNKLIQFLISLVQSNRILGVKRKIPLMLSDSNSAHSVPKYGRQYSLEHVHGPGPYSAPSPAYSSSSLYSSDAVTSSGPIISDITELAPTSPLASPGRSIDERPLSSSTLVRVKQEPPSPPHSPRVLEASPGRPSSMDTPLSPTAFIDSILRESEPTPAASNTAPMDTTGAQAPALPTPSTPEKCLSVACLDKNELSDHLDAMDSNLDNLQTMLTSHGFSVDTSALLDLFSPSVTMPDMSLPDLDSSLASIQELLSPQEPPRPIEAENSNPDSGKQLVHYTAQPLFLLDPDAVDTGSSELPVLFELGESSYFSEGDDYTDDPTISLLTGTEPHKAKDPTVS
As to the kind of experiment: inhibition of MG132-induced HSE-luciferase signal, confirmation, cell-based, NIH3T3, luminescence, dose retest (AID 2382).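 Also: NIH3T3 fibroblasts with HSF1-driven luciferase reporter stressed by proteasome inhibitor MG132; luminescence from HSF1-driven luciferase expression after 8 hours of MG132 stress.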 The class given is functional.

The target in a further test is Genome polyprotein (dengue virus type 2, UniProt P29990). As to the kind of experiment: Dengue-2 NS5 methyltransferase inhibitors, primary screen, biochemical, confirmation dose response (AID 588689). The class given is functional.
Sequence of Genome polyprotein (P29990 2492-3391 limits assumed): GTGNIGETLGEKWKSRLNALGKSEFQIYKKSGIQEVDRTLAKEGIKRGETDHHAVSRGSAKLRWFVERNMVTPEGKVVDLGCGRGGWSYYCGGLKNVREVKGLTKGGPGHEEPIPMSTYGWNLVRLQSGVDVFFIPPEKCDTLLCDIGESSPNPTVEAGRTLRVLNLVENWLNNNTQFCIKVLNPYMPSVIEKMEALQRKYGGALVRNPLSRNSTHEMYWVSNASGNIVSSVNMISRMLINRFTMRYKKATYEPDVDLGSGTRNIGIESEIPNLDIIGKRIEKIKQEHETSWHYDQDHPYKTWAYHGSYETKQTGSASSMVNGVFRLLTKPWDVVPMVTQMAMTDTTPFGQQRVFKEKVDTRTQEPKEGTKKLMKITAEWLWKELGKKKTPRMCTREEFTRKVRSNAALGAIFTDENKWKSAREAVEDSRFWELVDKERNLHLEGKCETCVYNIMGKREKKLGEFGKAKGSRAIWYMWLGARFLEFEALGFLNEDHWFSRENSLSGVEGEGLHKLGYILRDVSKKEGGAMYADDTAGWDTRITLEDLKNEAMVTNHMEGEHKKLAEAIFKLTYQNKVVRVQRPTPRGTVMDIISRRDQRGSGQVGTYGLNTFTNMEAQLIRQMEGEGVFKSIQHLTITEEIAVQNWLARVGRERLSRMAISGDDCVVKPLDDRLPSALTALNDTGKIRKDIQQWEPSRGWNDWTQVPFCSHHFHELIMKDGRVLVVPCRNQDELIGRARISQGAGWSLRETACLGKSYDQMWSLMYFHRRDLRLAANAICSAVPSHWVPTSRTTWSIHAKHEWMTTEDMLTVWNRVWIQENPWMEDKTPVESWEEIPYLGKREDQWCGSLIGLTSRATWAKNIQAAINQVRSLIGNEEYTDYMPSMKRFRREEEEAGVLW
Test [10] has as its target T4, Replicative DNA helicase DnaB (Mycobacterium tuberculosis, UniProt P9WMR3).
T4 sequence (P9WMR3 whole entry): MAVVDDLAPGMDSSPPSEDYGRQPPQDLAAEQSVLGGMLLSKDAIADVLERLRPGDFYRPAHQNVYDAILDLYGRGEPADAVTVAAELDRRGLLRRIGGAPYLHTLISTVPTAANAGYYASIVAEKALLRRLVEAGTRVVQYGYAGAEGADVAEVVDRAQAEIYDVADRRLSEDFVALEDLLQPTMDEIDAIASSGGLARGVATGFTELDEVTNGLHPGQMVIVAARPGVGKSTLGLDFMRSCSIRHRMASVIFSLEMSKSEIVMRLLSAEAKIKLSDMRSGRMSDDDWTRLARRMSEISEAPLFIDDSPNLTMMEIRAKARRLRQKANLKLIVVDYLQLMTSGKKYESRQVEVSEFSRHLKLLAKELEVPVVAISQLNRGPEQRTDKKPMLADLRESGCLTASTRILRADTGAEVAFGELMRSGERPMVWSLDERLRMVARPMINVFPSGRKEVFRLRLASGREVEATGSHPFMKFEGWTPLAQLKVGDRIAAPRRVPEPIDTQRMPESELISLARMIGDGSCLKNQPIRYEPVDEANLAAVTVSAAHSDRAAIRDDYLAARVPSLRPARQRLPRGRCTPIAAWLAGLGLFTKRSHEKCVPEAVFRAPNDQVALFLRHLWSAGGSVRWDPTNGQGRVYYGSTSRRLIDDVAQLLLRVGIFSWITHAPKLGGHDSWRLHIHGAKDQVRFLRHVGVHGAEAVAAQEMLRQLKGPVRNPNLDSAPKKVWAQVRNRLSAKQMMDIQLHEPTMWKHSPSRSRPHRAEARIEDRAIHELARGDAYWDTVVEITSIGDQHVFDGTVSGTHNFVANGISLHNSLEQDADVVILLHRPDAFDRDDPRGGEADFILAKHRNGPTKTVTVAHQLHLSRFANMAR
The test is described as follows: DnaB intein splicing inhibitors, dose response, biochemical, cell-free fluorescence (AID 449749). It counts as functional.

Another test deals with T5, Protein RecA (Mycobacterium tuberculosis, UniProt P9WHJ3).
T5 sequence (P9WHJ3 whole entry): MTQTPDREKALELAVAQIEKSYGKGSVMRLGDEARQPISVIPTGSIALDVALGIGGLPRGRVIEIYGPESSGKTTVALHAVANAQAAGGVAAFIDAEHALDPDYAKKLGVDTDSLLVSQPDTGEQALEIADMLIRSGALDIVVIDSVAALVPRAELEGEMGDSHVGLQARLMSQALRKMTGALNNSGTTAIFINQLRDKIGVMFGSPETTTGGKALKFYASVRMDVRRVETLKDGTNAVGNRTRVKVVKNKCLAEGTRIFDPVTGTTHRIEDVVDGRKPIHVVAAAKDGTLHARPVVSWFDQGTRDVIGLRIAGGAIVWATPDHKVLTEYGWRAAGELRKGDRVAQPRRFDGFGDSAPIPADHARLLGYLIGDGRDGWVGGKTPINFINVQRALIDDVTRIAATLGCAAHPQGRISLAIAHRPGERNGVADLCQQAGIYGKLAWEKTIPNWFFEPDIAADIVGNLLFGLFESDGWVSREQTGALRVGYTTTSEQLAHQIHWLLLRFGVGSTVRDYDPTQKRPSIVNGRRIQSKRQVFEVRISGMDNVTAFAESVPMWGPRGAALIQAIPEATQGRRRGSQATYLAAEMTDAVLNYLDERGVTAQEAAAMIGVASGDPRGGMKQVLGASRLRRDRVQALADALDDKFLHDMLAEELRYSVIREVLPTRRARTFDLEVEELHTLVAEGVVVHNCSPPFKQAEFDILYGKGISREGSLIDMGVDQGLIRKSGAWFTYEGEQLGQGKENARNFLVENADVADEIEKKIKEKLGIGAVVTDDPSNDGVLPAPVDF
As to the kind of experiment: Fluorescence Cell-Free Homogeneous Dose Retest to Identify Inhibitors of RecA-Intein Splicing Activity. [Related pubchem assays (depositor defined):AID2097, AID2223, AID489010, AID492950]. The class given is functional.

The target of test [11] is FAD-linked sulfhydryl oxidase ALR (Homo sapiens, UniProt P55789). The test is described as follows: inhibitors of human ALR sulfhydryl oxidase, dose response, biochemical, H2O2 detection, luminescence, cherry-pick (AID 493248).
Sequence of FAD-linked sulfhydryl oxidase ALR (P55789 whole entry): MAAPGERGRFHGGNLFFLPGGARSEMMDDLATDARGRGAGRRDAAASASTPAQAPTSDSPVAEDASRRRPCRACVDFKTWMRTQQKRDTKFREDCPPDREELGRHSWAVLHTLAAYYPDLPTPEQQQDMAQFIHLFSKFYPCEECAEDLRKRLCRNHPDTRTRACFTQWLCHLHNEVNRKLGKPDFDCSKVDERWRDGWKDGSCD
Test [12] can be described thus: NIH-3T3 fibroblast cytotoxicity, dose response, cytotoxicity control, cell-based, fluorescence, Alamar Blue, secondary assay (AID 2327).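 Also: NIH-3T3 mouse fibroblasts cultured with fluconazole at 8 µg/mL.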 It counts as functional. On the technique in general: Resazurin is reduced to fluorescent resorufin, in cell work by metabolically active cells.
The nature of test [13]: C. albicans growth with fluconazole, confirmation, fluorescence, retest (AID 2467). It counts as functional, cell-based.
Test [14] concerns the target T6, Voltage-gated N-type calcium channel alpha-1B subunit/Amyloid beta A4 precursor protein-binding family A member 1 (Homo sapiens, UniProt Q00975+Q02410). It counts as protein assay.
The target in test [15] is T6, Voltage-gated N-type calcium channel alpha-1B subunit/Amyloid beta A4 precursor protein-binding family A member 1. The class given is protein assay. This is another data set of the same source.

T6 sequence (Q00975 whole entry): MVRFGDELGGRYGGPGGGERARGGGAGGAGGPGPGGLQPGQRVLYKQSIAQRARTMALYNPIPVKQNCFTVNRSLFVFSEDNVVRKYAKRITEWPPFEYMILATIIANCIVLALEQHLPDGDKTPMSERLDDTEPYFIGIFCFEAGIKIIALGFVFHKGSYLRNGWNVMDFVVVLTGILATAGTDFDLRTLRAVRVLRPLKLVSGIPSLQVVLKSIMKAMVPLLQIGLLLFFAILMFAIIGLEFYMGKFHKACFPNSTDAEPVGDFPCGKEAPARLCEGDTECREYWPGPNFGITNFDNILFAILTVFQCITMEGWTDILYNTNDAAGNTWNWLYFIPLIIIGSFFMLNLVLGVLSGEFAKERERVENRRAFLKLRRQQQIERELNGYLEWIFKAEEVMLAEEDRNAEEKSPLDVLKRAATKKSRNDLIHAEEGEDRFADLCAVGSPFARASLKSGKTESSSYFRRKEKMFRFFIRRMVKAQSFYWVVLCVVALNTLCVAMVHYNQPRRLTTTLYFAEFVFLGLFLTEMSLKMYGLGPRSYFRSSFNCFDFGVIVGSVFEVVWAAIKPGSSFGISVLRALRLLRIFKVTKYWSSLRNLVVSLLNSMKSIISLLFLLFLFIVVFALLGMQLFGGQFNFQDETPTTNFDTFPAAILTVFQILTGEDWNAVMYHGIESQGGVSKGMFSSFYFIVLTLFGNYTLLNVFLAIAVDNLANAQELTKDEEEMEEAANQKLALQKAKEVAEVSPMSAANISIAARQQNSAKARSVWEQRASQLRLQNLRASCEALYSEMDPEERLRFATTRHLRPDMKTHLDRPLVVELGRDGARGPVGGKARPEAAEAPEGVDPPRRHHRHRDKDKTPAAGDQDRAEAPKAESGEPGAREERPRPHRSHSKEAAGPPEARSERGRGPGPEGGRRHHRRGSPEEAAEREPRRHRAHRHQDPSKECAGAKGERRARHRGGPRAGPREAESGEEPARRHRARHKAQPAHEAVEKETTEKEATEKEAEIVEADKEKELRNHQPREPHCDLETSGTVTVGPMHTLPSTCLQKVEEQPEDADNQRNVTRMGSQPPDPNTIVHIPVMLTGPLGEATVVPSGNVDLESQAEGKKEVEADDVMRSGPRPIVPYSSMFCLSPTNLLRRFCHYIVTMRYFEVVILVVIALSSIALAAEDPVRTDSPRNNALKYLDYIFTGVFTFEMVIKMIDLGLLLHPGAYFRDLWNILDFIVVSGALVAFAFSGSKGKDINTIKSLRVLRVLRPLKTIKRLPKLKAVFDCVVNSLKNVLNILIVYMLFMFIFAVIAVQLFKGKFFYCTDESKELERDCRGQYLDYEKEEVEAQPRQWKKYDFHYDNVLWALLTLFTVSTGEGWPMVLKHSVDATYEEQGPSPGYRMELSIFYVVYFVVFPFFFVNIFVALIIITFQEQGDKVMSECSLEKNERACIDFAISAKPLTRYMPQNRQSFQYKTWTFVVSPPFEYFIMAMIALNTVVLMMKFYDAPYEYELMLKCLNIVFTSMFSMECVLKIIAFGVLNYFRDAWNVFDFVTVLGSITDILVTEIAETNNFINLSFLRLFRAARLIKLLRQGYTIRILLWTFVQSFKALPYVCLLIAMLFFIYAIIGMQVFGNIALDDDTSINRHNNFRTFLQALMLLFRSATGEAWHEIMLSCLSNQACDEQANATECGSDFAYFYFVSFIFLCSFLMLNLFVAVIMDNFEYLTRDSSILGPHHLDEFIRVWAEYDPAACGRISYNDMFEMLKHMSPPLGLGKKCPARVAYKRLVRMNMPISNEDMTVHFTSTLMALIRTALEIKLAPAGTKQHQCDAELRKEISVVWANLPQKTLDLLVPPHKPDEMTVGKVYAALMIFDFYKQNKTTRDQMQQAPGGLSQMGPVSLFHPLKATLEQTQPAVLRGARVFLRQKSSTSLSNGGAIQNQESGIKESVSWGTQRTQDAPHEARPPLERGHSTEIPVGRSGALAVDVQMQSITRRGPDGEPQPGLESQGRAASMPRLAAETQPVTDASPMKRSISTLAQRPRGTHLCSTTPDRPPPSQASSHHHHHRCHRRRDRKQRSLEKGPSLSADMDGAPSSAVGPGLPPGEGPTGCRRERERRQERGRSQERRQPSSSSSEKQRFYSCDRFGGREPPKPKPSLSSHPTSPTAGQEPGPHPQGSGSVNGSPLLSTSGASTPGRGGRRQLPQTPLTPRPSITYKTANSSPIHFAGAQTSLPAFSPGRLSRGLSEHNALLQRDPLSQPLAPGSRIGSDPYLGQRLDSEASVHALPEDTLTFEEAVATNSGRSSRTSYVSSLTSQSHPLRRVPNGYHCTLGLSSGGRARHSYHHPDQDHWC
T6 sequence (Q02410 whole entry): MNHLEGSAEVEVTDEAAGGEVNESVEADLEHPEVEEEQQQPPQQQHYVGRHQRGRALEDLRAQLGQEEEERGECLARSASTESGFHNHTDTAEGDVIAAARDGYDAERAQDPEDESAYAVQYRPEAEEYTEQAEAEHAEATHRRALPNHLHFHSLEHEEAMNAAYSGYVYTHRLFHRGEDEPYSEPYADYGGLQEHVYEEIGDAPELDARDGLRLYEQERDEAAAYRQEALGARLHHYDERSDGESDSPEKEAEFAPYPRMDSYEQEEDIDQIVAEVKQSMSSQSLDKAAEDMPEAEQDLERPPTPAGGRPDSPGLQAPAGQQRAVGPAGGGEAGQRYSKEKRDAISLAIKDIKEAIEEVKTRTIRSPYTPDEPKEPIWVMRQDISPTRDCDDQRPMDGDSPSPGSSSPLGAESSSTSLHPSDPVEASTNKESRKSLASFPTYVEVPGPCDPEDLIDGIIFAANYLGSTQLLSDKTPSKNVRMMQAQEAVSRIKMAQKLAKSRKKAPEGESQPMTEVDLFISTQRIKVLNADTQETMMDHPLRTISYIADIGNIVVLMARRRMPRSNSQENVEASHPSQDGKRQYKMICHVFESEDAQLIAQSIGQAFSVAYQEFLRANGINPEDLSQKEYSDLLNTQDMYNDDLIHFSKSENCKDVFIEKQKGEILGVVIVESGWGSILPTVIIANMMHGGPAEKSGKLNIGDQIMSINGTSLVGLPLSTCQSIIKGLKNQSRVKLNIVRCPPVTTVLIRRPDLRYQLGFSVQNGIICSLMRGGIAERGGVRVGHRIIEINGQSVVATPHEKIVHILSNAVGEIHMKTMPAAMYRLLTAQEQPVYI

As for `COCCCNc1nnc(Cc2ccc(Cl)cc2)c(O)n1`, the EC50 in the test on BJ [1] was 24.2 µM (active); in [2], 9.25 µM (inconclusive); in [3], 1.04 µM (active); in test [4] it was 6.13 µM (active); in test [5], 9.52 µM (active); in the test on BJ [6], 1.47 µM (active). Further, the concentration for a half-maximal effect (EC50) in the test on BJ [7] was 0.913 µM (active).
`Cc1nc(C)n(CC(O)COc2ccc(C(=O)c3ccccc3)cc2)n1` (stereo not drawn): the IC50 in test [8] is on record as 13.4 µM (not active).
On to `COc1ccc(S(=O)(=O)N2CCCCC2)cc1NC(=O)CN(C)C1CCCCC1`, for which the IC50 is 10.8 µM (not active) in [8] and > 50 µM (inactive) on Coagulation factor XII.
Turning to `N#CC1=C(N)Oc2cc(N)ccc2C1c1cc(Br)cs1` (stereo not drawn), the EC50 with BJ [1] is 94.1 µM (inconclusive); in [3], 15.5 µM (inconclusive); with BJ [6], 11.4 µM (active); in the test on BJ [7], 20.6 µM (inconclusive).
Regarding `Cc1ccc(SCc2n[nH]c3c2C(c2ccc(C)o2)C(C#N)=C(N)O3)cc1` (stereo not drawn), the results for the EC50 (in test [9]; at Protein RecA) were > 195 µM (not active) and 7.85 µM (active), respectively. Besides, the IC50 at Genome polyprotein was > 100 µM (active). Moreover, the AC50 in [10] is 61.4 µM (active).
Turning to `Cn1c(NCc2ccco2)nc2c1c(=O)n(Cc1ccc(Br)cc1)c(=O)n2C`, the concentration for half-maximal inhibition (IC50) in [8] was 2.84 µM (not active).
For `Cc1ccc(NC(=O)c2cccc(C(=O)Nc3ccc(C)cc3C(=O)O)c2)c(C(=O)O)c1`, at Genome polyprotein, the IC50 was 22.3 µM (active). In test [11], the half-maximal activity concentration (AC50) is 2.11 µM (active).
Regarding `CN(C)C(=O)c1cn(-c2ccccc2)nc1-c1cccs1`, the values for the EC50 in test [12] and in test [13] were 24 µM (inconclusive) and 7.34 µM (active), respectively.
Regarding `O=C(CCN1C(=O)/C(=C/c2ccccc2F)SC1=S)NC1C=CS(=O)(=O)C1` (stereo not drawn), the IC50 in test [14] is 2.87 µM (active); in test [15], > 50 µM (inactive).
For the compound `CCC(=O)c1ccc(Oc2ccc(C(=O)c3ccc(C)cc3)cc2[N+](=O)[O-])cc1`, the EC50 (in the test with BJ [1]; in test [3]; in the test with BJ [6]; with BJ [7]) was > 150 µM (not active) in each case.
Consider `COc1ccc(OC)c(C(c2nnnn2C2CCCC2)N2CCN(c3ccccc3F)CC2)c1` (stereo not drawn), for which, in test [8], the IC50 is 1.31 µM (not active).
As for `NC(=O)c1ccc(-n2nnnc2SCC(=O)Nc2ccccc2-c2ccccc2)cc1`, in test [8], the concentration for half-maximal inhibition (IC50) is given as 5.14 µM (not active).
Consider `CNC(=S)N=C(Nc1ccc(C)cc1)c1ccccc1`, for which the IC50 in test [14] was 2.38 µM (active); in [15], > 50 µM (inactive).
